Nine compounds from US6806265B2, “Non-nucleoside reverse transcriptase inhibitors” (priority 2002, dated 2004) can be followed below.

SMILES strings stand for the structures. Where only a bound is given, the exact number is not on record here.

Experiment [1] relates to HIV-1 double mutant K103N/Y181C. As to the kind of experiment: microbe, parasite or virus in culture. Type of experiment: cell-based. To be noted: Human immunodeficiency virus 1, read-out: EC50 K103N/Y181C (nM).
The subject of another experiment is HIV-1 wild type. Briefly: microbe, parasite or virus in culture. It counts as cell-based. As to conditions: Human immunodeficiency virus 1; wild type; read-out: EC50 WT RT.
Experiment [2] addresses T1, HIV-1 RT double mutant K103N/Y181C (Human immunodeficiency virus type 1 group M subtype B, UniProt P03366, K702N/Y780C).
T1 construct: HIV-1 wild type reverse transcriptase as well as the clinically significant double mutant K103N/Y181C
Briefly: biochemical. As for the experimental part: (§1) Utilizing the Reverse Transcriptase (RT) Assay described below, compounds were tested for their ability to inhibit the RNA-dependent DNA polymerase activity of HIV-1 RT. Certain specific compounds described in the Examples and in Tables 1-4, were so tested. The results of this testing appear in Table 5 as ranges of IC50 (nM) and EC50 (nM).
(§2) Reverse Transcriptase (RT) Assays

Experiment [3] concerns the target T2, HIV-1 wild type reverse transcriptase (Human immunodeficiency virus type 1 group M subtype B, UniProt P03366).
T2 construct: HIV-1 wild type reverse transcriptase
Briefly: biochemical. As to conditions: wild type RT; read-out: IC50 WT RT. As for the experimental part:
as §1, §2

For the compound `CCN1c2ncc(CCOc3ccc(NC(=O)C4CC4C(=O)O)cc3C)cc2C(=O)N(C)c2cccnc21` (stereo not drawn) [Entry 4009], the EC50 in experiment [1] was above 50 nM; in the experiment on HIV-1 wild type it was below 10 nM. Also, the values for the half-maximal inhibitory concentration (IC50) in experiment [2] and in experiment [3] were above 100 nM and below 50 nM, respectively.

Take `CCN1c2ncc(CCOc3ccc(C(=O)NN)cc3C)cc2C(=O)N(C)c2cccnc21` [Entry 4011, 4-[2-(11-Ethyl-6,11-dihydro-5-methyl-6-oxo-5H-dipyrido[3,2-b:2′,3′-e][1,4]diazepin-8-yl)ethoxy]-3-methylbenzoic acid hydrazide]: the EC50 (in experiment [1]; in the experiment with HIV-1 wild type) was below 10 nM throughout. The IC50 in experiment [2] and in experiment [3] was below 50 nM throughout.

Consider `CCN1c2ncc(CCOc3ccc(C(=O)NC(C)(C)C(=O)O)cc3C)cc2C(=O)N(C)c2cccnc21` [Entry 4012], for which the EC50 was above 50 nM in experiment [1] and 10 to 50 nM in the experiment with HIV-1 wild type. Besides, the IC50 in experiment [2] was 50 to 100 nM; in experiment [3], below 50 nM.

With `CCN1c2ncc(CCOc3ccc(C(=O)NS(C)(=O)=O)cc3C)cc2C(=O)N(C)c2cccnc21` [Entry 4013, 4-[2-(11-Ethyl-6,11-dihydro-5-methyl-6-oxo-5H-dipyrido[3,2-b:2′,3′-e][1,4]diazepin-8-yl)ethoxy]-3-methyl-N-(methylsulfonyl)benzamide], the EC50 in experiment [1] was above 50 nM; in the experiment on HIV-1 wild type it was 10 to 50 nM. The 50% inhibitory concentration (IC50) in experiment [2] is above 100 nM; in experiment [3] it was below 50 nM.

Take `CCN1c2ncc(CCOc3ccc(C(=O)NCC(CC)(CC)C(=O)O)cc3C)cc2C(=O)N(C)c2cccnc21` [Entry 4014]: the values for the EC50 (in experiment [1]; in the experiment with HIV-1 wild type) were 10 to 50 nM and below 10 nM, respectively. For the same compound, the IC50 in experiment [2] and in experiment [3] was below 50 nM throughout.

In the case of `CCN1c2ncc(CCOc3ccc(C(=O)NNC)cc3C)cc2C(=O)N(C)c2cccnc21` [Entry 4016], the EC50 (in experiment [1]; with HIV-1 wild type) was below 10 nM throughout. Besides, the IC50 in experiment [2] and in experiment [3] was below 50 nM each time.

As to `CCN1c2ncc(CCOc3ccc(C(=O)NC(C)(C)CC(=O)O)cc3C)cc2C(=O)N(C)c2cccnc21` [Entry 4017], the EC50 in experiment [1] was above 50 nM; in the experiment on HIV-1 wild type, below 10 nM. Moreover, the IC50 in experiment [2] was above 100 nM; in experiment [3], below 50 nM.

As for `CCN1c2ncc(CCOc3ccc(C(=O)NCC4(C(=O)O)CCCC4)cc3C)cc2C(=O)N(C)c2cccnc21` [Entry 4018], the EC50 is 10 to 50 nM in experiment [1] and below 10 nM with HIV-1 wild type. The values for the IC50 in experiment [2] and in experiment [3] were above 100 nM and below 50 nM, respectively.

`CCN1c2ncc(CCOc3ccc(S(=O)(=O)NCC(=O)O)cc3C)cc2C(=O)N(C)c2cccnc21` [Entry 4020]: the EC50 (in experiment [1]; in the experiment on HIV-1 wild type) was above 50 nM throughout. Moreover, the IC50 in experiment [2] and in experiment [3] was below 50 nM throughout.

The term IC50 denotes the concentration that gives 50% inhibition.
